Source: patent publication US20260000642A1 (Tay Therapeutics Limited, priority 2022, published 2026)
Several values for one entry are separate records, joined by “and”; a condition that tells them apart may be missing. Identical values can stand only once.

Tested on: collagen-induced arthritis in Lewis rats
Assay: Collagen-induced arthritis (CIA) model in rats: body weight, paw volume, clinical scores, clinical observations; on Detailed Clinical Scores, left forelimb: key of the grades not given here; on Detailed Clinical Scores, left hind limb: key of the grades not given here; on Detailed Clinical Scores, right forelimb: key of the grades not given here; on Detailed Clinical Scores, right hind limb: key of the grades not given here; on Detailed Clinical Scores, score: key of the grades not given here; on Overall clinical score: key of the grades not given here
Conditions: for Animal paw volume / Animal body weight percent change: Group 3 (CIA + Dexamethasone); for Animal paw volume: individual animals 1-8; for Animal paw volume percent change (%): individual animals, CIA + reference compound (Groups 3, 4); for Average animal body weight percent change: CIA + compound; for Detailed Clinical Scores, left forelimb / Detailed Clinical Scores, left hind limb / Detailed Clinical Scores, right forelimb / Detailed Clinical Scores, right hind limb / Detailed Clinical Scores, score: per animal ID; for Overall clinical score: individual CIA rats
[1] = CIA rats, daily P.O. for 21 days

Method: Prior to be randomly placed in treatment groups, animals were weighed, and paw volume was measured. Once randomly assigned to treatment groups, on Day 0, animals in groups 2-9 were immunized by subcutaneous injection at the base of the tail. The immunization comprised 100 μL of the CFA+Collagen emulsion (prepared according to the method in Experimental Method A). Animals in group one received no immunization. Seven days after the first injection, animals in groups 2-9 received a booster immunization comprising 200 μL of the IFA+Collagen emulsion (prepared according to the method in Experimental Method A).
Starting on Day 0, animals in group 1 and 2 were administered daily doses of the vehicle per os (P.O.) for 21 days.
The twice daily doses for animals in groups 4-9 were 8 hours apart (e.g., the first dose at 8:00 AM and the second dose at 4:00 PM).
Body weight of all animals was recorded daily for the 21-day period. Blind clinical scores on all four limbs were conducted for all animals in the study. Animals were assessed prior to receiving their first dose of the compound or control, and scores for each limb were combined to a total daily score for each animal. Clinical score assessments were performed on Day 0, 6, 12, 13, 14, 15, 18, 19, and 21 (for a total of 9 daily scores).
Paw volume was recorded for each animal on Day 0, 6, 12, 13, 14, 15, 18, 19, and 21 (for a total of 9 measurements). To measure paw volume, animals were gently held with one hand while the hind paw was placed into a plethysmometer with the other hand. Lipid displacement by the paw was recorded and used to represent paw volume.
At the conclusion of the study (end of the 21-day period), animals were euthanized. Euthanasia occurred four hours after animals received their first dose on the morning of Day 21. Hind limbs were collected following euthanasia, with the left limb being used for H&E staining.
All data measured and recorded was analyzed using SPSS 16.0 software. Groups were compared using one-way ANOVA and significance was set at p<0.05.
Arthritis was induced in Lewis rats by immunizing animals with the CFA+Collagen emulsion via subcutaneous injection at the base of the tail on day 0. Seven days after the first immunization, animals received a booster immunization with the IFA+Collagen emulsion via subcutaneous injection at the base of the tail.
Starting on day 0, animals in group 1 and 2 were administered daily doses of the vehicle per os (P.O.) for 21 days. […] The twice daily doses for animals in groups 4-9 were 8 hours apart (e.g., the first dose at 8:00 AM and the second dose at 4:00 PM).

## C[C@@H]1C[C@H]2[C@@H]3CCC4=CC(=O)C=C[C@]4(C)[C@@]3(F)[C@@H](O)C[C@]2(C)[C@@]1(O)C(=O)CO [dexamethasone]
CIA rats, day 21 vs day 0, daily P.O. for 21 days
  animals that gained weight by the end of the study (of 8): 4/8
[1]
  diarrhea over the 21-day period: did not have diarrhea
  increase in body weight, day 21 compared to day 0: 1.3%
Day 0, L paw
  Animal paw volume: 1.35 mL and 1.31 mL and 1.39 mL and 1.33 mL and 1.30 mL (2×) and 1.34 mL and 1.36 mL
  Animal paw volume percent change (%): 0.00%
Day 0, R paw
  Animal paw volume: 1.34 mL and 1.30 mL (2×) and 1.38 mL and 1.35 mL and 1.29 mL and 1.36 mL and 1.37 mL
  Animal paw volume percent change (%): 0.00%
Day 0
  Average animal body weight percent change: 0.00%
  Overall clinical score: 0
Day 0, CIA
  Detailed Clinical Scores, left forelimb: 0
  Detailed Clinical Scores, left hind limb: 0
  Detailed Clinical Scores, right forelimb: 0
  Detailed Clinical Scores, right hind limb: 0
  Detailed Clinical Scores, score: 0
Day 1
  Average animal body weight percent change: −2.80%
Day 2
  Average animal body weight percent change: −3.22%
Day 3
  Average animal body weight percent change: −4.37%
Day 4
  Average animal body weight percent change: −4.95%
Day 5
  Average animal body weight percent change: −4.95%
Day 6, L paw
  Animal paw volume: 1.31 mL and 1.29 mL (3×) and 1.34 mL and 1.28 mL
  Animal paw volume percent change (%): −2.97% and −1.53% and −3.61% and −3.02% and −3.09% and −3.08% and −4.12% and −5.51%
Day 6, R paw
  Animal paw volume: 1.30 mL (3×) and 1.28 mL (2×) and 1.34 mL and 1.27 mL
  Animal paw volume percent change (%): −3.00% and −1.16% and 2.91% and −1.56% and 12.70% and −5.90% and −5.13%
Day 6
  Average animal body weight percent change: −4.41%
  Overall clinical score: 0
Day 6, CIA
  Detailed Clinical Scores, left forelimb: 0
  Detailed Clinical Scores, left hind limb: 0
  Detailed Clinical Scores, right forelimb: 0
  Detailed Clinical Scores, right hind limb: 0
  Detailed Clinical Scores, score: 0
Day 7
  Average animal body weight percent change: −3.35%
Day 8
  Average animal body weight percent change: −3.90%
Day 9
  Average animal body weight percent change: −1.84%
Day 10
  Average animal body weight percent change: −2.30%
Day 11
  Average animal body weight percent change: −1.24%
Day 12, L paw
  Animal paw volume: 1.37 mL and 1.28 mL (2×) and 1.30 mL and 1.29 mL
  Animal paw volume percent change (%): −10.41% and −7.66% and −1.44% and −3.40% and −1.54% and −6.54% and −3.00% and −5.51%
Day 12, R paw
  Animal paw volume: 1.37 mL and 1.27 mL and 1.29 mL
  Animal paw volume percent change (%): −6.74% and −3.09% and −0.73% and −7.43% and −1.56% and −9.27% and −7.01% and −5.86%
Day 12
  Average animal body weight percent change: −1.18%
  Overall clinical score: 0
Day 12, CIA
  Detailed Clinical Scores, left forelimb: 0
  Detailed Clinical Scores, left hind limb: 0
  Detailed Clinical Scores, right forelimb: 0
  Detailed Clinical Scores, right hind limb: 0
  Detailed Clinical Scores, score: 0
Day 13, L paw
  Animal paw volume: 1.40 mL and 1.29 mL (2×) and 1.30 mL and 1.31 mL
  Animal paw volume percent change (%): −8.92% and −5.36% and 0.72% and −3.02% and 0.00% and −4.23% and −2.25% and −5.51%
Day 13, R paw
  Animal paw volume: 1.27 mL and 1.38 mL and 1.28 mL and 1.31 mL and 1.29 mL
  Animal paw volume percent change (%): −5.99% and −2.32% and 0.36% and −7.43% and −0.78% and −6.95% and −3.69% and −5.86%
Day 13
  Average animal body weight percent change: −0.91%
  Overall clinical score: 0
Day 13, CIA
  Detailed Clinical Scores, left forelimb: 0
  Detailed Clinical Scores, left hind limb: 0
  Detailed Clinical Scores, right forelimb: 0
  Detailed Clinical Scores, right hind limb: 0
  Detailed Clinical Scores, score: 0
Day 14, L paw
  Animal paw volume: 1.39 mL and 1.27 mL and 1.28 mL and 1.29 mL
  Animal paw volume percent change (%): −8.18% and −5.36% and 0.00% and −4.53% and −1.54% and −5.00% and −3.75% and −8.46%
Day 14, R paw
  Animal paw volume: 1.38 mL and 1.29 mL
  Animal paw volume percent change (%): −5.62% and −2.70% and 0.00% and −8.92% and −2.33% and −7.72% and −5.17% and −8.06%
Day 14
  Average animal body weight percent change: −1.24%
  Overall clinical score: 0
Day 14, CIA
  Detailed Clinical Scores, left forelimb: 0
  Detailed Clinical Scores, left hind limb: 0
  Detailed Clinical Scores, right forelimb: 0
  Detailed Clinical Scores, right hind limb: 0
  Detailed Clinical Scores, score: 0
Day 15, L paw
  Animal paw volume: 1.36 mL and 1.28 mL and 1.33 mL and 1.27 mL
  Animal paw volume percent change (%): −8.92% and −7.28% and −2.17%
Day 15, R paw
  Animal paw volume: 1.36 mL and 1.27 mL (2×) and 1.32 mL
  Animal paw volume percent change (%): −6.74% and −4.25% and −1.45%
Day 15
  Average animal body weight percent change: 0.43%
  Overall clinical score: 0
Day 15, CIA
  Detailed Clinical Scores, left forelimb: 0
  Detailed Clinical Scores, left hind limb: 0
  Detailed Clinical Scores, right forelimb: 0
  Detailed Clinical Scores, right hind limb: 0
  Detailed Clinical Scores, score: 0
Day 16
  Average animal body weight percent change: −0.57%
Day 17
  Average animal body weight percent change: 0.62%
Day 18, L paw
  Animal paw volume: 1.28 mL and 1.45 mL and 1.31 mL and 1.29 mL and 1.34 mL and 1.30 mL
  Animal paw volume percent change (%): −5.20% and −6.51% and 4.33%
Day 18, R paw
  Animal paw volume: 1.28 mL and 1.44 mL and 1.31 mL and 1.29 mL (2×) and 1.34 mL
  Animal paw volume percent change (%): −4.49% and −4.63% and 4.36%
Day 18
  Average animal body weight percent change: 1.02%
  Overall clinical score: 0
Day 18, CIA rats
  Detailed Clinical Scores, left forelimb: 0
  Detailed Clinical Scores, left hind limb: 0
  Detailed Clinical Scores, right forelimb: 0
  Detailed Clinical Scores, right hind limb: 0
  Detailed Clinical Scores, score: 0
Day 19, L paw
  Animal paw volume: 1.28 mL (2×) and 1.44 mL and 1.30 mL (2×) and 1.33 mL
  Animal paw volume percent change (%): −5.20% and −6.90% and 3.61%
Day 19, R paw
  Animal paw volume: 1.27 mL (2×) and 1.44 mL and 1.31 mL and 1.32 mL and 1.30 mL
  Animal paw volume percent change (%): −5.24% and −6.18%
Day 19
  Average animal body weight percent change: 1.53%
  Overall clinical score: 0
Day 19, CIA rats
  Detailed Clinical Scores, left forelimb: 0
  Detailed Clinical Scores, left hind limb: 0
  Detailed Clinical Scores, right forelimb: 0
  Detailed Clinical Scores, right hind limb: 0
  Detailed Clinical Scores, score: 0
Day 20
  Average animal body weight percent change: 1.66%
Day 21, L paw
  Animal paw volume: 1.43 mL and 1.31 mL (2×) and 1.30 mL (2×)
  Animal paw volume percent change (%): −6.32% and −6.90%
Day 21, R paw
  Animal paw volume: 1.43 mL and 1.31 mL and 1.30 mL (2×) and 1.32 mL
  Animal paw volume percent change (%): −5.99% and −6.18%
Day 21
  Average animal body weight percent change: 1.30%
  Overall clinical score: 0
Day 21, CIA rats
  Detailed Clinical Scores, left forelimb: 0
  Detailed Clinical Scores, left hind limb: 0
  Detailed Clinical Scores, right forelimb: 0
  Detailed Clinical Scores, right hind limb: 0
  Detailed Clinical Scores, score: 0
Day 0, individual animals
  Animal body weight percent change: 0.00%
Day 1, individual animals
  Animal body weight percent change: 0.66% and −7.41% and −1.72% and −2.37% and −1.20% and −6.21%
Day 2, individual animals
  Animal body weight percent change: −0.66% and −6.79% and 1.15% and −1.78% and −3.01% and −8.07%
Day 3, individual animals
  Animal body weight percent change: −1.99% and −11.11% and 0.57% and −2.96% and −2.41% and −9.94%
Day 4, individual animals
  Animal body weight percent change: −2.65% and −9.26% and −2.30% and −5.33% and −6.02%
Day 5, individual animals
  Animal body weight percent change: −2.65% and −8.02% and −5.17% and −2.96% and −4.82%
Day 6, individual animals
  Animal body weight percent change: −2.65% and −6.17% and −1.72% and −4.73% and −6.63%
Day 7, individual animals
  Animal body weight percent change: −0.66% and −5.56% and 2.30% and −4.14% and −3.61%
Day 15, individual animals
  Animal body weight percent change: 9.93% and −3.09% and 2.30% and 0.59% and −1.20% and −6.83% and 2.33% and −0.63%
Day 16, individual animals
  Animal body weight percent change: 3.97% and −5.56% and 7.47% and −0.59% and −4.22% and −8.70% and 1.16% and 1.88%
Day 17, individual animals
  Animal body weight percent change: 5.96% and −4.32% and 8.05% and −2.37% and 0.60% and −6.83% and −1.16% and 5.00%
Day 18, individual animals
  Animal body weight percent change: 3.97% and −6.17% and 8.62% and −2.37% and 0.00% and −5.59% and 4.07% and 5.63%
Day 19, individual animals
  Animal body weight percent change: 7.28% and −9.26% and 10.34% and 0.59% and 1.20% and −5.59% and 5.81% and 1.88%
Day 20, individual animals
  Animal body weight percent change: 7.95% and −3.70% and 5.75% and 2.37% and 0.60% and −4.35% and 4.65% and 0.00%
Day 21, individual animals
  Animal body weight percent change: 8.61% and −3.70% and 7.47% and 0.00% and −3.01% and −5.59% and 2.91% and 3.75%
